Experimental data: article PMC4575645 (ACS chemical biology, 2015)

Tests used:
[1] = target: CalS13 (Micromonospora echinospora, UniProt Q8KND8); test: X-ray crystal structure, […] Å; type: binding
[2] = target: WecE (Escherichia coli, UniProt P27833); test: X-ray crystal structure, […] Å; type: binding; conditions: covalent external aldimine with PLP; eight subunits
Chain of WecE (P27833 whole entry): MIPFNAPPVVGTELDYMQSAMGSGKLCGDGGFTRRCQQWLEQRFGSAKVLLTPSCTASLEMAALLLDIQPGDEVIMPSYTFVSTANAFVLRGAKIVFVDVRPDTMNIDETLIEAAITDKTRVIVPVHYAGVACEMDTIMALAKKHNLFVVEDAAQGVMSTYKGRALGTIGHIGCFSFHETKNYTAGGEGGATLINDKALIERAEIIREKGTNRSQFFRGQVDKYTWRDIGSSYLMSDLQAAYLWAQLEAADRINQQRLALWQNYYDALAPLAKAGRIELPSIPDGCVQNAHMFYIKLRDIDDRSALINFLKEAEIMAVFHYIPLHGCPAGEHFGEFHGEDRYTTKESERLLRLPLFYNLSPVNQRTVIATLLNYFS

## Cc1ncc(COP(=O)(O)O)c(C=O)c1O [PLP]
[1]; covalent internal aldimine with Lys202, all six subunits
  X-ray crystal structure, 2.47 Å: All six subunits contained PLP as internal aldimines of Lys202

## Cc1cn([C@H]2C[C@H](O)[C@@H](COP(=O)(O)OP(=O)(O)O)O2)c(=O)[nH]c1=O [TDP]
[1]; with PLP internal aldimine, three of six subunits
  X-ray crystal structure, 2.47 Å: three had electron density for just TDP

## Cc1cn([C@H]2C[C@H](O)[C@@H](COP(=O)(O)OP(=O)(O)O[C@H]3O[C@H](C)[C@H](N)[C@H](O)[C@H]3O)O2)c(=O)[nH]c1=O [TDP-4-amino-4,6-dideoxy-α-D-galactose]
[2]
  X-ray crystal structure, 2.24 Å: WecE cocrystallization led to WecE/PLP/TDP-4-amino-4,6-dideoxygalactose ternary complexes
